Test system: SEM cells
Assay: cell viability relative to DMSO control; higher = less cytotoxic
Details: 48 h
How it was run: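 Viability, reported as a per-plate percentage of DMSO wells with cell-free wells as background, came from CellTiter-Glo One luminescence. Reading took place after 48 h at 37°C. Before that, NOMO1 or SEM (500 cells/well) or P12-Ichikawa (1000 cells/well) leukemia cells, adapted for at least four passages in each medium, were seeded in 1536-well plates (5 μl) and pin-dosed with library compounds in DMSO, 47 μM to 0.79 nM over 11 threefold points.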

[1] = HPLM + 10% dialyzed FBS, 0.000781 µM
[2] = HPLM + 10% dialyzed FBS, 0.00234 µM
[3] = HPLM + 10% dialyzed FBS, 0.00702 µM
[4] = HPLM + 10% dialyzed FBS, 0.0211 µM
[5] = HPLM + 10% dialyzed FBS, 0.0632 µM
[6] = HPLM + 10% dialyzed FBS, 0.19 µM
[7] = HPLM + 10% dialyzed FBS, 0.569 µM
[8] = HPLM + 10% dialyzed FBS, 1.71 µM
[9] = HPLM + 10% dialyzed FBS, 5.12 µM
[10] = HPLM + 10% dialyzed FBS, 15.4 µM
[11] = HPLM + 10% dialyzed FBS, 46.1 µM
[12] = RPMI 5 mM glucose + 10% FBS, 0.000781 µM
[13] = RPMI 5 mM glucose + 10% FBS, 0.00234 µM
[14] = RPMI 5 mM glucose + 10% FBS, 0.00702 µM
[15] = RPMI 5 mM glucose + 10% FBS, 0.0211 µM
[16] = RPMI 5 mM glucose + 10% FBS, 0.0632 µM
[17] = RPMI 5 mM glucose + 10% FBS, 0.19 µM
[18] = RPMI 5 mM glucose + 10% FBS, 0.569 µM
[19] = RPMI 5 mM glucose + 10% FBS, 1.71 µM
[20] = RPMI 5 mM glucose + 10% FBS, 5.12 µM
[21] = RPMI 5 mM glucose + 10% FBS, 15.4 µM
[22] = RPMI 5 mM glucose + 10% FBS, 46.1 µM
[23] = RPMI 5 mM glucose + 10% dialyzed FBS, 0.000781 µM
[24] = RPMI 5 mM glucose + 10% dialyzed FBS, 0.00234 µM
[25] = RPMI 5 mM glucose + 10% dialyzed FBS, 0.00702 µM
[26] = RPMI 5 mM glucose + 10% dialyzed FBS, 0.0211 µM
[27] = RPMI 5 mM glucose + 10% dialyzed FBS, 0.0632 µM
[28] = RPMI 5 mM glucose + 10% dialyzed FBS, 0.19 µM
[29] = RPMI 5 mM glucose + 10% dialyzed FBS, 0.569 µM
[30] = RPMI 5 mM glucose + 10% dialyzed FBS, 1.71 µM
[31] = RPMI 5 mM glucose + 10% dialyzed FBS, 5.12 µM
[32] = RPMI 5 mM glucose + 10% dialyzed FBS, 15.4 µM
[33] = RPMI 5 mM glucose + 10% dialyzed FBS, 46.1 µM

Compound	cell viability [1]	cell viability [2]	cell viability [3]	cell viability [4]	cell viability [5]	cell viability [6]	cell viability [7]	cell viability [8]	cell viability [9]	cell viability [10]	cell viability [11]	cell viability [12]	cell viability [13]	cell viability [14]	cell viability [15]	cell viability [16]	cell viability [17]	cell viability [18]	cell viability [19]	cell viability [20]	cell viability [21]	cell viability [22]	cell viability [23]	cell viability [24]	cell viability [25]	cell viability [26]	cell viability [27]	cell viability [28]	cell viability [29]	cell viability [30]	cell viability [31]	cell viability [32]	cell viability [33]
CC1(C)C(=O)N(CCN2CCC(C(=O)c3ccc(F)cc3)CC2)c2ccccc21	92.5%	111%	113%	111%	119%	119%	119%	113%	103%	98.7%	101%	102%	121%	115%	115%	105%	117%	115%	100%	89.7%	107%	94.2%	111%	109%	105%	134%	116%	115%	117%	124%	111%	114%	101%
C[C@H]1C[C@H]2[C@@H]3CCC4=CC(=O)C=C[C@]4(C)[C@@]3(F)[C@@H](O)C[C@]2(C)[C@@]1(O)C(=O)CO	86.1%	105%	101%	92.8%	99.5%	78.5%	68.9%	27.5%	67.1%	31.3%	66%	101%	110%	106%	105%	91.6%	67.3%	66.7%	26.4%	69.6%	22.8%	64.4%	108%	140%	114%	93.6%	87.1%	72.6%	72.3%	24%	53.2%	23.9%	74%
CN(C/C=C/C#CC(C)(C)C)Cc1cccc2ccccc12	81.5%	84.7%	93%	92.4%	96.3%	101%	114%	94%	107%	100%	98.3%	72.2%	99.6%	86.7%	94.2%	93.3%	101%	105%	105%	95%	76.5%	99.4%	81%	90.4%	85.9%	98.9%	110%	95.6%	96.6%	104%	117%	104%	95%
C[S+](=O)([O-])N(Cc1ccco1)CC(O)Cn1c2ccccc2c2ccccc21 (stereo not drawn)	106%	88.5%	100%	100%	99.5%	98%	92.8%	97.6%	55.4%	56.5%	18.5%	115%	113%	127%	119%	122%	116%	106%	109%	63.3%	59.1%	10.7%	91.8%	99.5%	108%	96.7%	102%	106%	91%	78.4%	46.3%	35.9%	8.62%
CNC1[C@@H](O)C(O[C@@H]2C(O)C(O[C@H]3O[C@H]([C@@H](C)NC)CC[C@H]3N)[C@@H](N)C[C@H]2N)OC[C@]1(C)O (stereo partly drawn)	99.8%	96.4%	99.2%	95.1%	113%	106%	93.2%	97.7%	92.9%	88.5%	80.8%	105%	120%	94.2%	101%	92.2%	103%	97.9%	83.3%	90.4%	86.1%	98%	102%	101%	98.4%	106%	99.3%	104%	106%	108%	85.7%	114%	91.7%
CC(C)(C)C(=O)OCOP(=O)(COCCn1cnc2c(N)ncnc21)OCOC(=O)C(C)(C)C	84.1%	112%	104%	101%	71.9%	51%	68.1%	38.1%	25.6%	14.1%	7.08%	108%	101%	108%	88%	61.7%	42.7%	51.4%	26.5%	13%	7.59%	2.97%	86.6%	95.4%	95.3%	85.1%	48.5%	39.8%	42.2%	23.2%	13%	10.9%	3.51%
Clc1cc(Cl)cc(CNc2ncncc2-c2ccc3c(c2)OCO3)c1	93.3%	101%	95.7%	97.4%	89%	104%	92.2%	105%	90.4%	89.1%	29.7%	100%	97.4%	98.4%	94.5%	92.7%	110%	103%	86.6%	92.3%	86.6%	5.5%	90.5%	95.3%	102%	99.7%	90.5%	96.8%	80.4%	100%	105%	86.2%	28.3%
CC(=O)N1CCN(c2ccc(OC[C@H]3CO[C@](Cn4ccnc4)(c4ccc(Cl)cc4Cl)O3)cc2)CC1	98.3%	97.8%	104%	95.2%	107%	26.4%	90.9%	92.8%	21.5%	87.1%	86.4%	124%	136%	121%	125%	134%	28%	113%	104%	14.1%	90.5%	48.5%	–	–	–	–	–	–	–	–	–	–	–
CO[C@H]1C[C@@H]2CC[C@@H](C)[C@@](O)(O2)C(=O)C(=O)N2CCCC[C@H]2C(=O)O[C@H]([C@H](C)C[C@@H]2CC[C@@H](OC(=O)C(C)(CO)CO)[C@H](OC)C2)CC(=O)[C@H](C)/C=C(\C)[C@@H](O)[C@@H](OC)C(=O)[C@H](C)C[C@H](C)/C=C/C=C/C=C/1C	80.2%	93.3%	88%	77.7%	76.5%	74.5%	64.7%	55.4%	57.7%	49.1%	41.6%	71.2%	78.2%	70.1%	61.6%	60.5%	56.3%	57.7%	52.4%	50.5%	27.3%	15.7%	87.4%	97.1%	91.2%	73.1%	84.6%	83.1%	64.4%	61.8%	67.4%	58.4%	23.2%
CC1(C)OC2CC3C4CC(F)C/5=C/C(=O)/C=C\C5(C)C4C(O)CC3(C)[C@@]2(O1)C(=O)CO (stereo partly drawn)	97.4%	95.3%	95.6%	102%	94.6%	85.9%	77.2%	65.9%	65.7%	33.9%	71.1%	91.4%	98.9%	104%	105%	101%	77.5%	60.7%	56%	59.6%	20.5%	60.3%	109%	95.4%	122%	125%	106%	78%	75.4%	62.7%	55.9%	26%	61.6%
CN1\C(=C(\O)C2=C(C=CS2)[S+]1([O-])=O)C(=O)NC3=CC=CC=N3	106%	108%	112%	103%	114%	112%	109%	105%	106%	98.4%	102%	95%	107%	112%	100%	114%	101%	112%	103%	103%	108%	90.9%	110%	95.5%	112%	108%	107%	112%	104%	112%	106%	106%	103%
Cn1c(Nc2ccc(C(F)(F)F)cc2)nc2cc(Oc3ccnc(-c4nc(C(F)(F)F)c[nH]4)c3)ccc21	97.1%	114%	116%	96.8%	127%	115%	109%	96.2%	59.6%	55.1%	24.8%	111%	109%	124%	94.8%	136%	117%	122%	98.2%	53.4%	44.2%	12.7%	108%	118%	134%	102%	128%	130%	116%	112%	55.3%	48.6%	18.1%
O=C(NC[C@H](O)CN1CCc2ccccc2C1)c1cc(NC2COC2)ncn1	58.8%	84.9%	91.5%	81.6%	86.3%	75%	68.5%	71.6%	78.4%	68.6%	26.9%	71.9%	145%	124%	141%	132%	121%	108%	108%	114%	88.5%	47.2%	59%	107%	100%	91.1%	73.8%	81%	80.5%	75.2%	84.2%	65.1%	25.2%

Source: the supplement of paper PMC11451515
